In ChEMBL document CHEMBL4419120, “Bitter taste receptors” (2015):

Key:
Type in all cases: functional, cell-based
[1] = molecular target: T1, Taste receptor type 2 member 46 (Homo sapiens) (UniProt P59540); assay: Activity at human TAS2R46 expressed in HEK-293T-Galpha16-gustducin44 cells assessed as threshold concentration of compound at which point receptor detects compounds by measuring calcium response by FLIPR assay
T1 sequence (whole entry): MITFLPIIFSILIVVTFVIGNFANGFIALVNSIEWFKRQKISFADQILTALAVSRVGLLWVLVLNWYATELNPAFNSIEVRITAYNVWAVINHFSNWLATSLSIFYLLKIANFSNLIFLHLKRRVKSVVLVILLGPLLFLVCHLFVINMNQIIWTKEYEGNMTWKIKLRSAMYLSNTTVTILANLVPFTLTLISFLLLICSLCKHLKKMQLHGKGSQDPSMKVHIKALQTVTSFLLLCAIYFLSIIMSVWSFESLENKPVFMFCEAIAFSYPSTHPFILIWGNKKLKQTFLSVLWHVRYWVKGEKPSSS

[2] = molecular target: T2, Taste receptor type 2 member 19 (Homo sapiens) (UniProt P59542); assay: Activity at human TAS2R48 expressed in HEK-293T-Galpha16-gustducin44 cells assessed as threshold concentration of compound at which point receptor detects compounds by measuring calcium response by FLIPR assay
T2 sequence (whole entry): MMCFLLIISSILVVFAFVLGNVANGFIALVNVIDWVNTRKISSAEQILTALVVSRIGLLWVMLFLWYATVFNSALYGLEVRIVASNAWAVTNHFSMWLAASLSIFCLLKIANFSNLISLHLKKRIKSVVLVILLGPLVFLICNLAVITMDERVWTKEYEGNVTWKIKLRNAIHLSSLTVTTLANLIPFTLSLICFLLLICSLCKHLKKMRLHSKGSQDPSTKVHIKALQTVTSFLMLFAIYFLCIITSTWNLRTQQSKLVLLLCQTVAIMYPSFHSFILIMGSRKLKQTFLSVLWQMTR

[3] = molecular target: T3, Taste receptor type 2 member 10 (Homo sapiens) (UniProt Q9NYW0); assay: Activity at human TAS2R10 expressed in HEK-293T-Galpha16-gustducin44 cells assessed as threshold concentration of compound at which point receptor detects compounds by measuring calcium response by FLIPR assay
T3 sequence (whole entry): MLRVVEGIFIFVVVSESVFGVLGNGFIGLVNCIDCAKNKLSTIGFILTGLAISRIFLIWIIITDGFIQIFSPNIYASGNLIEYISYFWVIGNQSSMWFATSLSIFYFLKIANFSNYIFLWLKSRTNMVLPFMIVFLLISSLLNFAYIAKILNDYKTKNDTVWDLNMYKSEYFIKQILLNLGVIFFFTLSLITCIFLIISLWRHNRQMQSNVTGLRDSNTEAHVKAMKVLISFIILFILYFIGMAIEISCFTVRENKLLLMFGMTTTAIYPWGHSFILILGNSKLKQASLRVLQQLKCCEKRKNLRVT

[4] = molecular target: T4, Taste receptor type 2 member 45 (Homo sapiens) (UniProt P59539); assay: Activity at human TAS2R45 expressed in HEK-293T-Galpha16-gustducin44 cells assessed as threshold concentration of compound at which point receptor detects compounds by measuring calcium response by FLIPR assay
T4 sequence (whole entry): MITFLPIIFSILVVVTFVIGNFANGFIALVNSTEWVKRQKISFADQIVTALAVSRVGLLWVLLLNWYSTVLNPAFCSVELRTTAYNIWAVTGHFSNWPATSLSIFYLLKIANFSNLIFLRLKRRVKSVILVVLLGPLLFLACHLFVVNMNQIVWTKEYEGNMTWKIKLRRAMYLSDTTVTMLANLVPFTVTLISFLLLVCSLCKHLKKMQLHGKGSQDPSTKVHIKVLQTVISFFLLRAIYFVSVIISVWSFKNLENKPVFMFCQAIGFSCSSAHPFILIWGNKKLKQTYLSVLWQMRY

Activity [1]: 0.001 mM | Activity [2]: 0.03 mM | Activity [3]: 0.01 mM | Activity [4]: 0.003 mM
Structure (SMILES): CC1=C[C@@H]2[C@@H]3C4C(=C(C)[C@@H]3[C@@]13[C@@H]2[C@@](C)(O)CC[C@H]1[C@H](C)C(=O)O[C@@H]13)[C@H]1OC(=O)[C@@H](C)[C@@H]1CC[C@]4(C)O (some centres undefined)
